Each block holds one molecule with its values, some of them ahead of it.
Legend:
[1] = system: Mobiluncus mulieris ATCC 35243; assay: Inhibition of bacteria growth, drug dilution tubes, anaerobic; type: cell-based; design: key to growth: (+) for growth; (−) for no growth; (±) for suboptimal growth after an initial observation of growth
Description: Serial dilutions of tinidazole and terconazole were prepared by adding measured amounts of each substance to water (both individually and in combination). Seven bacterial organisms that are common pathogens in bacterial vaginosis were grown anaerobically in the medium as listed in Table 4 under a N2/H2/CO2 (85:5:10) head space atmosphere. [table] These cultures were diluted to a 0.5 McFarland standard prior to inoculation of drug dilution tubes. One (1) mL of the 0.5 McFarland preparation was inoculated to an anaerobically prepared test tube containing 0.8 mL of Difco anaerobic medium (DAMM) and 0.2 mL of appropriate diluted antimicrobial or antimicrobial combination for a total of 2 mL. The inoculated tubes were then incubated at 37° C. and monitored daily for growth. Growth was scored with a (+) for growth, (−) for no growth, and (±) for suboptimal growth after an initial observation of growth. Tinidazole is abbreviated as TNZ and terconazole is abbreviated as TER in Tables 5 through 11.

[2] = Solubilization of terconazole in water with acid (crystal observation); type: physicochemical
Description: Weighed amounts of terconazole were added to separate containers including an acid in water, applying heat, if necessary, to dissolve the terconazole. The amount of acid was selected to be about equimolar with the amount of terconazole added. After the terconazole was dissolved, each solution was cooled to about 4° C. to force crystallization of the terconazole. If crystals were not observed upon cooling, seed crystals of terconazole were then added and the solutions were again cooled to about 4° C. for about 72 hours. After allowing for crystal formation in all solutions, the solutions were allowed to warm to room temperature (about 20° C.).
Table 2 includes dissolution data for a number of compositions comprising varying amounts of terconazole and various acids. The data in Table 2 clearly indicate that solutions having a terconazole concentration of at least about 3 percent by weight and free from terconazole crystals at 20° C. were obtained utilizing tartaric acid and malic acid.

[3] = Solubilization of tinidazole in water with acid (crystal observation); type: physicochemical; conditions: 20° C., at least 14 days
Description: Weighed amounts of tinidazole were added to separate containers including an acid in water, applying heat, if necessary, to dissolve the tinidazole. The amount of acid was selected to be about equimolar with the amount of tinidazole added. After the tinidazole was dissolved, each solution was cooled to about 2° C. to force crystallization of some of the tinidazole. If crystals were not observed upon cooling, seed crystals of tinidazole were added. After crystal formation was observed, the solutions were allowed to warm to room temperature (about 20° C.). […] The absence of crystals after 14 days indicates effective dissolution of tinidazole. Table 1 includes dissolution data for a number of compositions comprising varying amounts of tinidazole and various acids. The data in Table 1 clearly indicate that solutions having a tinidazole concentration of at least about 0.5 percent by weight and free from tinidazole crystals at 20° C. were obtained utilizing citric acid, hydrochloric acid, acetic acid, tartaric acid, and malic acid. Tinidazole concentrations as high as about 0.55 percent by weight were obtained utilizing tartaric acid and citric acid.

[4] = Combined solubilization of tinidazole and terconazole in water with citric acid; type: physicochemical; conditions: 20° C., terconazole about 0.8 percent by weight
Description: Weighed amounts of tinidazole and terconazole were added to separate containers including citric acid in water, applying heat, if necessary, to dissolve the tinidazole and terconazole. The amount of citric acid was selected to be about equimolar with the molar amount of tinidazole and terconazole added. After the tinidazole and terconazole was dissolved, each solution was cooled to about 4° C. to force crystallization of the tinidazole and terconazole. If crystals were not observed upon cooling, seed crystals of tinidazole were added and the solutions were again cooled to about 4° C. […] The absence of crystals after 14 days indicates effective dissolution of tinidazole and terconazole. Table 3 includes dissolution data for a number of compositions comprising varying amounts of tinidazole, terconazole and citric acid. The data in Table 3 clearly indicate that solutions having a tinidazole concentration of at least about 0.6 percent by weight and a terconazole concentration of about 0.8 percent by weight and free from crystals at 20° C. were obtained utilizing citric acid.

terconazole concentration of solutions free from terconazole crystals ([2]; 20° C., about 14 days, tartaric acid and malic acid): at least 3 percent by weight
terconazole solubilized ([2]; citric acid, separate study): 2.4 percent by weight
SMILES: CC(C)N1CCN(c2ccc(OCC3COC(Cn4cncn4)(c4ccc(Cl)cc4Cl)O3)cc2)CC1 (stereo not drawn) [TER, cis-1-[p[[2-(2,4-dichlorophenyl)-2-(1 H-1,2,4-triazol-1-ylmethyl)-1,3-dioxolan-4-yl]methoxy]phenyl]-4-isopropylpiperazine]
growth ([1]; TER 3.1 μg/ml, DAY 1): (+)
growth ([1]; TER 3.1 μg/ml, DAY 2): (+)
growth ([1]; TER 3.1 μg/ml, DAY 3): (+)
growth ([1]; TER 3.1 μg/ml, DAY 4): (+)
growth ([1]; TER 3.1 μg/ml, DAY 5): (+)
growth ([1]; TER 6.2 μg/ml, DAY 1): (+)
growth ([1]; TER 6.2 μg/ml, DAY 2): (+)
growth ([1]; TER 6.2 μg/ml, DAY 3): (+)
growth ([1]; TER 6.2 μg/ml, DAY 4): (+)
growth ([1]; TER 6.2 μg/ml, DAY 5): (+)
growth ([1]; TER 12.5 μg/ml, DAY 1): (+)
growth ([1]; TER 12.5 μg/ml, DAY 2): (+)
growth ([1]; TER 12.5 μg/ml, DAY 3): (+)
growth ([1]; TER 12.5 μg/ml, DAY 4): (+)
growth ([1]; TER 12.5 μg/ml, DAY 5): (+)
growth ([1]; TER 25 μg/ml, DAY 1): (+)
growth ([1]; TER 25 μg/ml, DAY 2): (+)
growth ([1]; TER 25 μg/ml, DAY 3): (+)
growth ([1]; TER 25 μg/ml, DAY 4): (+)
growth ([1]; TER 25 μg/ml, DAY 5): (+)
growth ([1]; TER 50 μg/ml, DAY 1): (+)
growth ([1]; TER 50 μg/ml, DAY 2): (+)
growth ([1]; TER 50 μg/ml, DAY 3): (+)
growth ([1]; TER 50 μg/ml, DAY 4): (+)
growth ([1]; TER 50 μg/ml, DAY 5): (+)
growth ([1]; TER 100 μg/ml, DAY 1): (+)
growth ([1]; TER 100 μg/ml, DAY 2): (+)
growth ([1]; TER 100 μg/ml, DAY 3): (+)
growth ([1]; TER 100 μg/ml, DAY 4): (+)
growth ([1]; TER 100 μg/ml, DAY 5): (+)
growth ([1]; TER 200 μg/ml, DAY 1): (+)
growth ([1]; TER 200 μg/ml, DAY 2): (+)
growth ([1]; TER 200 μg/ml, DAY 3): (+)
growth ([1]; TER 200 μg/ml, DAY 4): (+)
growth ([1]; TER 200 μg/ml, DAY 5): (+)
growth ([1]; TER 400 μg/ml, DAY 1): (−)
growth ([1]; TER 400 μg/ml, DAY 2): (−)
growth ([1]; TER 400 μg/ml, DAY 3): (−)
growth ([1]; TER 400 μg/ml, DAY 4): (−)
growth ([1]; TER 400 μg/ml, DAY 5): (−)
growth ([1]; TER 800 μg/ml, DAY 1): (−)
growth ([1]; TER 800 μg/ml, DAY 2): (−)
growth ([1]; TER 800 μg/ml, DAY 3): (−)
growth ([1]; TER 800 μg/ml, DAY 4): (−)
growth ([1]; TER 800 μg/ml, DAY 5): (−)
antibacterial activity compared with tinidazole ([1]; Tables 6 through 11): superior to the antibacterial compound tinidazole

tinidazole concentration of solutions free from tinidazole crystals ([3]; citric acid, hydrochloric acid, acetic acid, tartaric acid, and malic acid, about equimolar): at least 0.5 percent by weight
tinidazole concentration of solutions free from tinidazole crystals ([3]; tartaric acid and citric acid): about 0.55 percent by weight
tinidazole concentration of solutions free from crystals [4]: at least 0.6 percent by weight
SMILES: CCS(=O)(=O)CCn1c([N+](=O)[O-])cnc1C [TNZ, 1-[2-(ethylsulfonyl)ethyl]-2-methyl-5-nitroimidazole]
growth ([1]; TNZ 2 μg/ml, DAY 1): (+)
growth ([1]; TNZ 2 μg/ml, DAY 2): (+)
growth ([1]; TNZ 2 μg/ml, DAY 3): (+)
growth ([1]; TNZ 2 μg/ml, DAY 4): (+)
growth ([1]; TNZ 2 μg/ml, DAY 5): (+)
growth ([1]; TNZ 3.9 μg/ml, DAY 1): (+)
growth ([1]; TNZ 3.9 μg/ml, DAY 2): (+)
growth ([1]; TNZ 3.9 μg/ml, DAY 3): (+)
growth ([1]; TNZ 3.9 μg/ml, DAY 4): (+)
growth ([1]; TNZ 3.9 μg/ml, DAY 5): (+)
growth ([1]; TNZ 7.8 μg/ml, DAY 1): (+)
growth ([1]; TNZ 7.8 μg/ml, DAY 2): (+)
growth ([1]; TNZ 7.8 μg/ml, DAY 3): (+)
growth ([1]; TNZ 7.8 μg/ml, DAY 4): (+)
growth ([1]; TNZ 7.8 μg/ml, DAY 5): (+)
growth ([1]; TNZ 15.6 μg/ml, DAY 1): (−)
growth ([1]; TNZ 15.6 μg/ml, DAY 2): (−)
growth ([1]; TNZ 15.6 μg/ml, DAY 3): (−)
growth ([1]; TNZ 15.6 μg/ml, DAY 4): (+)
growth ([1]; TNZ 15.6 μg/ml, DAY 5): (+)
growth ([1]; TNZ 31.3 μg/ml, DAY 1): (−)
growth ([1]; TNZ 31.3 μg/ml, DAY 2): (−)
growth ([1]; TNZ 31.3 μg/ml, DAY 3): (−)
growth ([1]; TNZ 31.3 μg/ml, DAY 4): (+)
growth ([1]; TNZ 31.3 μg/ml, DAY 5): (+)
growth ([1]; TNZ 62.5 μg/ml, DAY 1): (−)
growth ([1]; TNZ 62.5 μg/ml, DAY 2): (−)
growth ([1]; TNZ 62.5 μg/ml, DAY 3): (−)
growth ([1]; TNZ 62.5 μg/ml, DAY 4): (−)
growth ([1]; TNZ 62.5 μg/ml, DAY 5): (−)
growth ([1]; TNZ 125 μg/ml, DAY 1): (−)
growth ([1]; TNZ 125 μg/ml, DAY 2): (−)
growth ([1]; TNZ 125 μg/ml, DAY 3): (−)
growth ([1]; TNZ 125 μg/ml, DAY 4): (−)
growth ([1]; TNZ 125 μg/ml, DAY 5): (−)
growth ([1]; TNZ 250 μg/ml, DAY 1): (−)
growth ([1]; TNZ 250 μg/ml, DAY 2): (−)
growth ([1]; TNZ 250 μg/ml, DAY 3): (−)
growth ([1]; TNZ 250 μg/ml, DAY 4): (−)
growth ([1]; TNZ 250 μg/ml, DAY 5): (−)
growth ([1]; TNZ 500 μg/ml, DAY 1): (−)
growth ([1]; TNZ 500 μg/ml, DAY 2): (−)
growth ([1]; TNZ 500 μg/ml, DAY 3): (−)
growth ([1]; TNZ 500 μg/ml, DAY 4): (−)
growth ([1]; TNZ 500 μg/ml, DAY 5): (−)

— US20080063668A1, “Nitroimidazole and terconazole composition and method” (priority 2006, published 2008)
